Results reported in patent US20210038589A1, “USES, COMPOSITIONS AND METHODS” (priority 2018, published 2021).

Test system: Drosophila melanogaster model expressing pan-neuronally human Aβ1-42 peptide
Test: Negative geotaxis climbing assay in Aβ-expressing Drosophila
Details: for individuals reached the top of the climbing column: ElavArc2E flies, 5 μM in food from day 1 after hatching
Description: The data shown represent results from a cohort of flies tested every 10 days for 35 days. Data are presented as average±SEM. Results were tested for significance using ANOVA with Bonferroni Post Test to compare all different groups. […] Viable flies were counted daily to assess differences in longevity between wild type and experimental flies and between experimental not treated or treated with the compounds. […] Briefly, flies display a negative geotaxis response when given a mechanical stimulus. When tapped to the bottom of a vial, flies normally orient themselves rapidly and begin to climb to the top. […] FIG. 11A). […] Approximately 10 flies were placed in an empty plastic vial. The vial was gently tapped to knock the flies to the bottom and the flies were recorded during their subsequent climbing to the top of the vial (negative geotaxis). […] The data shown represent results from a cohort of flies tested every 10 days for 35 days.

## O=c1[nH]c2ccccc2n1C1CCN(CCCC(c2ccc(F)cc2)c2ccc(F)cc2)CC1 [Pimozide]
At 5 days
  individuals reached the top of the climbing column: 97.4±0.3%
At 15 days
  individuals reached the top of the climbing column: 83.2±0.6%
At 25 days
  individuals reached the top of the climbing column: 38.3±0.5%
Control fly strains given the drug
  effect of the drug on control strains in the behavioural test: no adverse effect
